Patent publication US20240174663A1, “PYRIMIDINE OR PYRIDINE DERIVATIVES USEFUL AS HCN2 MODULATORS” (King's College London, priority 2021, published 2024)
Where a name gives a salt, the structure may show the parent alone.

Columns and labels:
HCN4 = biological target: T1, HCN4 (Homo sapiens, UniProt Q9Y3Q4); assay: HCN4 assay using PatchXpress 7000A (PX protocol, Example 25); type: cell-based; conditions: room temperature
T1 sequence (Q9Y3Q4 1-1203): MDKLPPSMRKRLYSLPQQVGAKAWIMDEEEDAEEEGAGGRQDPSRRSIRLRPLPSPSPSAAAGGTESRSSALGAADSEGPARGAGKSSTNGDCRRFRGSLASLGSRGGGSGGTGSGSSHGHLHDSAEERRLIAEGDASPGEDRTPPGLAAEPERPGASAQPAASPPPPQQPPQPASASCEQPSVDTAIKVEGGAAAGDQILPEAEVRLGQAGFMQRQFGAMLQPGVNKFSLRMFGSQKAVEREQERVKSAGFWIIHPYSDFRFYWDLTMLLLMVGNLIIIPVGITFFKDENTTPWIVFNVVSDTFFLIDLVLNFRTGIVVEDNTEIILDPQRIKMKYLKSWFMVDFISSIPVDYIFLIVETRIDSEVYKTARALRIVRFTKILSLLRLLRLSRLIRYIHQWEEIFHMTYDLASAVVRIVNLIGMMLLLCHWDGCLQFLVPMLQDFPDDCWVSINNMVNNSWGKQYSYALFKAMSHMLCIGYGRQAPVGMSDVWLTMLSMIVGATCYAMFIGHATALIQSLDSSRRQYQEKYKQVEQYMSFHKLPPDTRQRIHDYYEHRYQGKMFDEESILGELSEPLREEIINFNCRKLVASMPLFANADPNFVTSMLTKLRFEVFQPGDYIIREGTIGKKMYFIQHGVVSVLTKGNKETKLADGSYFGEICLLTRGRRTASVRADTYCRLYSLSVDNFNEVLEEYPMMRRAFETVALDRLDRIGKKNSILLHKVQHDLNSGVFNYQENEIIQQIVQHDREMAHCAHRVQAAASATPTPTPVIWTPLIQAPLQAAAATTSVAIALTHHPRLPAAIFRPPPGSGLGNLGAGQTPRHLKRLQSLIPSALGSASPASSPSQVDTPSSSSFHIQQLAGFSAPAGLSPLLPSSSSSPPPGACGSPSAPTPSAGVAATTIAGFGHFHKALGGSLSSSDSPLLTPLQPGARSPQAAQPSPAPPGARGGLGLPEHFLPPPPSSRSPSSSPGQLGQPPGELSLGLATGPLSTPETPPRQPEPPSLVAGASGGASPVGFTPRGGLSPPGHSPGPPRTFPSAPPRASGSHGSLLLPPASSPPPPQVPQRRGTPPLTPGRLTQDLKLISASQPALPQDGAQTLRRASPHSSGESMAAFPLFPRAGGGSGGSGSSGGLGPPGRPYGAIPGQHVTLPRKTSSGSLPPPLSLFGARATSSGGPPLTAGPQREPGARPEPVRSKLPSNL
Experimental: Example 25: Assay for HCN1 HCN2 and HCN4 Using PatchXpress 7000A
Solutions for recording HCN currents were:
The peak inward current measured at the end of the pulse to −110 mV (HCN1 and HCN2) or −130 mV (HCN4) was measured and any leak current subtracted to calculate the HCN current. The HCN current amplitude was measured after each control or compound addition and normalized to the control amplitude (Control A).
All experiments were performed at room temperature (approximately 22° C.).
Each test compound concentration was applied to the cell for seven (7) minutes, at which point the next cumulative concentration was applied.

WT Black6 strain mice = assay: Mouse neuropathic pain model (partial sciatic nerve ligation), von Frey filament; type: in vivo
Experimental: The model used was analogous to the model described in Seltzer Z, Dubner […] novel behavioural model of neuropathic pain disorders produced in rats by partial sciatic nerve injury, Pain 43: 205-218). […] Sci Transl Med 9: eaam6072. […] The mechanical pain threshold was measured by manual von Frey filament applied to the hind paw on the operated side, using the “up-down” method.

[1] = tested on: guinea pigs with salicylate-induced tinnitus; assay: Short-term (salicylate) tinnitus model, gap induced inhibition of the acoustic startle (GPIAS) test; type: in vivo, guinea pig; conditions: 5 mg/kg s.c.; salicylate 350 mg/kg i.p., 2 h
Text: (§1) Tinnitus in guinea pigs was monitored using the gap induced inhibition of the acoustic startle (GPIAS) test (see FIG. 4). GPIAS is reduced when tinnitus was present; see Berger, J. I. et al. Effects of the cannabinoid CB1 agonist ACEA on salicylate ototoxicity, hyperacusis and tinnitus in guinea pigs. Hearing research, (2017), and Coomber, B. et al. Neural changes accompanying tinnitus following unilateral acoustic trauma in the guinea pig. Eur J Neurosci 40, 2427-2441, (2014).
In FIG. 4, sound stimulus (above) and corresponding pinna reflex (below) are shown in freely moving guinea pigs. Stimuli with no gap and gap are presented in a randomised order. Traces contaminated by movement (the upper trace in “no gap”) were removed before analysis.
Tinnitus was induced within 1-2 hours in humans by high doses of salicylate. A similar short-term tinnitus model was implemented in guinea pigs by i.p. injection of salicylate. In all animals, salicylate caused behavioural inhibition of GPIAS (see bar 2 in FIG. 5).
Salicylate (350 mg/kg, i.p.) impairs behavioural gap detection 2 h after salicylate administration (see bar 2 in of FIG. 5). Gap detection was restored by blocking HCN channels with ivabradine (5 mg/kg, s.c.).

[2] = tested on: guinea pigs with noise-exposure induced tinnitus; assay: Noise-exposure tinnitus model, GPIAS test; type: in vivo, guinea pig
Text: as §1
The noise-exposure model is more clinically relevant than the salicylate model, as it parallels a common cause of tinnitus in humans. A second important point is that it is long-term, while tinnitus induced by salicylate is rapidly reversed following salicylate exposure.
GPIAS returns following drug wash-out (see bar D in FIG. 6).

[3] = Evaluation of CNS penetration: ivabradine in plasma, brain and auditory nerve; type: in vivo; conditions: guinea pig, brain (somatosensory cortex) / plasma, other: injection; 30 min after injection; read-out: amount detected in brain, % of plasma level
Text: Ratios of total concentrations in preliminary experiments for plasma:brain:auditory nerve were 1:0.12:0.57 (n=2). The small amount (12% of plasma level) detected in brain is largely accounted for by the presence of ivabradine within the vascular supply of the brain. […] Pain 155, 1708-1719, (2014).

[4] = tested on: mice (hearing thresholds); type: in vivo; conditions: adult mice, tone pulses 3 kHz to 42 kHz; 20 mg/kg ip
[5] = tested on: mouse models of neuropathic pain; conditions: nerve injury, cancer chemotherapy and diabetic neuropathy models; cited from earlier work
[6] = tested on: mouse model of diabetic neuropathy; conditions: in vivo; cited from earlier work

| Structure (SMILES) | IC50 (HCN4) [µM] | mechanical analgesic effect (mechanical pain threshold, von Frey) (WT Black6 strain mice; 1 mg/kg i.p., day 5 after partial sciatic nerve ligation, operated hind paw) | hyperalgesia in contralateral (unoperated) hind paw (WT Black6 strain mice; i.p., mice after partial sciatic nerve ligation) | behavioural gap detection (GPIAS) after salicylate [1] | reduced GPIAS following noise exposure ([2]; 5 mg/kg s.c., unilateral noise exposure 110 dB, 1 h, 8 weeks prior) | effect on GPIAS in noise-exposed guinea pigs showing no behavioural evidence of tinnitus ([2]; control experiments, n=3) | Kp at 30 min [3] | ABR threshold or latency versus untreated [4] | analgesia in mouse models of neuropathic pain [5] | analgesia in mouse model of diabetic neuropathy [6] |
| --- | --- | --- | --- | --- | --- | --- | --- | --- | --- | --- |
| Cc1ccc(C#N)nc1C[C@H](N)c1ncccc1-c1noc2ccccc12 [Example 4, (S)-6-{2-Amino-2-[3-(benzo[d]isoxazol-3-yl)pyridine-2-yl]ethyl}-5-methylpyridin-2-carbonitrile hydrochloride] | 5.2 | full analgesia | No hyperalgesia observed |  |  |  |  |  |  |  |
| COc1cc2c(cc1OC)CC(=O)N(CCCN(C)C[C@H]1Cc3cc(OC)c(OC)cc31)CC2 [ivabradine] |  |  |  | restored | rapidly and completely reversed | without effect | 0.12 | no significant difference in ABR threshold or latency | effective analgesic | complete analgesia |
